The subject of one assay is Aspergillus niger. Put plainly: Broth two-fold serial dilution MIC test. Format: cell-based, Aspergillus niger (ATCC 6275). Summed up:
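Two-fold broth serial dilution from 500 ppm down to 0.25 ppm, compound stock in acetone/methanol/water 5:3:2. Vessels inoculated with standardized spore suspension harvested from agar slants, incubated at a species-appropriate temperature, then scored for growth/no growth. MIC is the lowest concentration giving complete growth inhibition.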

For a further assay, the system named is Pseudomonas aeruginosa. The experiment in a line: Broth two-fold serial dilution MIC test. Format: cell-based, Pseudomonas aeruginosa (ATCC 15442). The conditions noted are these: for MIC: Table 2, Psae. Summed up:
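Broth two-fold serial dilution MIC (500 to 0.25 ppm) was run against Pseudomonas aeruginosa, with compound from 1% stock in acetone/methanol/water 5:3:2. Vessels inoculated with standardized broth-grown cells were incubated, then scored for growth. MIC is the lowest concentration giving complete growth inhibition.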

Another assay relates to Escherichia coli. The experiment in a line: Broth two-fold serial dilution MIC test. It counts as cell-based, Escherichia coli (ATCC 11229). The conditions noted are these: Table 2, Ecol. Put shortly: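 Broth two-fold serial dilutions ran from 500 down to 0.25 ppm, prepared from a stock in acetone/methanol/water (5:3:2). Each tube received a standardized bacterial suspension and was incubated at a temperature suited to the species. MIC is the lowest concentration giving complete growth inhibition.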

For a further assay, the system named is Staphylococcus aureus. The experiment in a line: Broth two-fold serial dilution MIC test. Format: cell-based, Staphylococcus aureus (ATCC 6538). As to conditions: for MIC: Table 2, Saur. Summed up: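 Broth two-fold serial dilution from 500 ppm down to 0.25 ppm, compound delivered from acetone/methanol/water stock, inoculated with standardized cell suspension and incubated at an organism-appropriate temperature. MIC is the lowest concentration giving complete growth inhibition.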

For the next assay, the system named is Proteus mirabilis. Put plainly: MIC test, side-by-side comparison. It counts as cell-based. The conditions noted are these: Table 4 side-by-side; P. mirabilis. The source says: (§1) A minimum inhibitory concentration (MIC) value is obtained using a broth, two-fold serial dilution test performed as follows: A stock solution or dispersion of the test compound, typically at a concentration of 1%, is made in a 5:3:2 solvent solution of acetone. methanol, and water. A volume of the stock solution is dispensed into culture media to give an initial starting test concentration of 500 ppm compound.
(§2) When the test is ready to be done, each vessel in the dilution series, except the first vessel, contains an equal volume of compound free broth. The first vessel contains twice the volume of broth with the starting concentration of test compound. One half of the broth from the first vessel is transferred to the second vessel- After being mixed, one half the resulting volume is removed from the second vessel and transferred to the third vessel. The entire cycle is repeated sufficiently to give a series of concentrations amounting to 500, 250, 125, 63, 31, 16, 8, and 4, 2, 1, 0.5, 0.25 ppm respectively.
(§3) Each vessel is then inoculated with a cell suspension of the appropriate test organism. Bacteria are grown in broth, fungi on agar slants for a time and at a temperature appropriate to the species being tested, and algae are a mixture of green algae and blue-green bacteria grown in a nutrient media. At the end of the growth period, in the case of bacteria, the broth is vortexed to disperse the cells.
(§4) In the case of fungi, the spores are harvested by pipetting water onto the slant and dislodging the spores with a sterile loop. The cell/spore suspension is standardized by controlling incubation time, temperature, and the volume of the diluent. The suspension is then used to inoculate the vessels containing the broth compound.
(§5) The vessels are then incubated at the appropriate temperature. After the incubation, the vessels are examined for growth/no growth. The minimum inhibitory concentration (MIC) is defined as the lowest concentration of compound that results in complete inhibition of growth of the test organism.
(§6) These five compounds were tested side-by-side against six organisms, Pseudomonas aeruginosa (P. aeruginosa), Klebsiella pneurnoniae (K. pneumoniae), Enterobacter aerogenes (E. aerogenes), Proteus mirabilis (P. mirabilis), Staphylococcus aureus (S. aureus), and Aspergillus niger (A. niger). The MIC tests were performed as in example 6.

A further assay has as its system Klebsiella pneurnoniae. Put plainly: MIC test, side-by-side comparison. Format: cell-based. The conditions noted are these: Table 4 side-by-side; K. Pneumoniae.
Excerpt: as §1, §2, §3, §4, §5, §6

The subject of another assay is Enterobacter aerogenes. Put plainly: MIC test, side-by-side comparison. It counts as cell-based. The conditions noted are these: Table 4 side-by-side; E. Aerogenes.
Excerpt: as §1, §2, §3, §4, §5, §6

Bounds are passed on as bounds.

Regarding `CCCCCCCCCCCCCC[N+]1(CC#CI)CCOCC1` [Compound 42, 4-tetradecyl-4-(3-iodopropargyl)-morpholinium methanesulfonate], the MIC in the assay with Aspergillus niger (Table 2, Anig, TSB media) is reported as 1 ppm; in the assay on Pseudomonas aeruginosa (M9G media), 1 ppm; against Pseudomonas aeruginosa (TSB media), 4 ppm; with Escherichia coli (M9G media) it was < 0.25 ppm; against Escherichia coli (TSB media), < 0.25 ppm; against Staphylococcus aureus (M9G media), < 0.25 ppm. The molecule also displayed an MIC in the assay on Staphylococcus aureus (TSB media) of 0.5 ppm. In addition, the “MIC Values” is listed as 8 ppm with Aspergillus niger (Table 4 side-by-side, A. niger); 16 ppm with Pseudomonas aeruginosa (Table 4 side-by-side, P. aeruginosa); 1 ppm in the assay with Staphylococcus aureus (Table 4 side-by-side, S. aureus); 4 ppm with Proteus mirabilis; 4 ppm in the assay with Klebsiella pneurnoniae; 1 ppm against Enterobacter aerogenes.

(Values after US5354862A, “Preparation and the use of halopropargylated cyclic quaternary ammonium compounds as antimicrobial agents” (Rohm and Haas Company, priority 1993, dated 1994).)
